Measured values taken from article PMC4224565 (Molecular Pharmaceutics, 2014).

Columns and labels:
INS-1 tumor mice = test: Ex vivo biodistribution in INS-1 tumor mice; design: species or system mouse; conditions: control group, dissected tissue, γ-counter, 2 h post injection, n = 5, mean ± SD
dipeptidyl-peptidase-IV = conditions: degraded by dipeptidyl-peptidase-IV via cleavage of two N-terminal residues; cited from earlier work

| Molecule | INS-1 tumor uptake (biodistribution) (INS-1 tumor mice) | half-life in vivo (dipeptidyl-peptidase-IV) |
| --- | --- | --- |
| O=C(NCCN1C(=O)C=CC1=O)c1ccc(F)nc1 [[^18F]FNEM, N-(2-(2,5-Dioxo-2,5-dihydro-1H-pyrrol-1-yl)ethyl)-6-fluoronicotinamide] | 23.06 ± 3.87%ID/g |  |
| GLP-1: glucose-dependent hormone released mainly from the small intestine |  | less than 2 min |
